{"source": "patent US10793525B2", "about": "“13-cis-RAMBA retinamides that degrade MNKs for treating cancer” (UNIVERSITY OF MARYLAND, BALTIMORE, priority 2014, dated 2020)", "key": {"[1]": {"tested_on": "MDA-MB-468 human breast cancer cells", "test": "MTT cell proliferation assay, MDA-MB-468", "format": "cell-based", "details": "MDA-MB-468 cells, SEM < 10%, read-out: GI50s MDA-MB-468", "source_text": "(§1) MCF-7, MDA-MB-231, MDA-MB-468 and SKBR-3 human breast cancer cells and LNCaP, PC-3, and CWR22Rv1 human prostate carcinoma cells (American Type Culture Collection, Manassas, Va., USA) were maintained in RPMI 1640 media (Gibco-Life Technologies, Grand Island, N.Y., USA) supplemented with 10% fetal bovine serum and 1% penicillin/streptomycin. Western blotting was done as mentioned previously,^8, 13b using the following antibodies: AR, Bad, Bax, Bcl-2, eIF4E, Mnk1, Mnk-2, N-cadherin, PARP, peIF4E^ser209 purchased from Cell Signaling Technology, Danvers, Mass., USA. Anti-Mnk2 was purchased from Sigma-Aldrich and normal rabbit IgG, cyclin D1 was from Santa Cruz Biotechnology, CA, USA.\n(§2) Cells were plated (2500 cells/well) in 96 well plates and treated with or without specified compounds as described previously.^8a, 12b\n(§3) The clinically relevant retinoids, ATRA and 4-HPR and the Mnk inhibitor, cercosporamide were used as comparators in the assays."}, "[2]": {"tested_on": "Mnk-1, peIF4E and their downstream targets", "test": "Molecular analysis of MDA-MB-231 tumors", "format": "in vivo", "details": "MDA-MB-231 tumors from treated mice", "source_text": "To assess their in vivo mode of action, we evaluated the effects of Compounds 20 and 22 on Mnk-1, peIF4E and their downstream targets."}, "[3]": {"tested_on": "CWR22Rv1 xenograft tumors", "test": "CWR22Rv1 anti-tumor efficacy study (xenograft)", "format": "in vivo, mice", "description": "All animal studies were performed according to the guidelines and approval of the Animal Care Committee of the University of Maryland School of Medicine, Baltimore (UMB). Female Athymic Nude mice or male SCID (Charles Rivers Laboratories or UMB facilities) at 4-6 weeks of age were maintained in a pathogen-free environment. MDA-MB-231 (10×10^6) cells were subcutaneously implanted into Athymic Nude mice and CWR22Rv1 (1×10^6) cells into male SCID mice. Mice bearing established tumors (˜100 mm^3) were randomized into treatment groups of 6 and dosed with vehicle (40% β-cyclodexdrin in ddH2O), or compounds 20 and 22 (i.p., formulated in 40% β-cyclodexdrin in ddH2O, once daily, 5 days a week for 28 days).\nThe National Cancer Institute (NCI) criteria^23 were used to determine tumor growth efficacy of our compounds. Thus, percent test or treatment/control (% T/C), defined as the ratio of the median tumor volume for the treated group versus control group, was calculated as % T/C=[(median tumor volume of treated group at day 28)/(median tumor volume of control group at day 28)]×100."}, "[4]": {"tested_on": "MDA-MB-231 cells", "test": "Wound-healing assay, MDA-MB-231 cell migration", "format": "cell-based, human", "details": "5 μM, 24 h", "description": "Wound healing assay and matrigel invasion assay were also conducted as described previously using highly metastatic PC-3 cells following treatment with 5 μM of RRs for 24 h.^8a,26\nBased on previous studies with closely related compound,^8 the inhibitory effects of Compounds 16, 20 and 22 on cell migration were evaluated, using the human metastatic BC cell line, MDA-MB-231 by wound-healing assay. MDA-MB-231 cells (5×10^5 cells/well) were seeded on Boyden chamber, grown to confluence and scratches made at experimental tome zero. The cells were treated with indicated compounds (5 μM each) for 24 h. Representative photomicrographs of initial and final wounds are shown at 100× magnification. […] At 24 hours after cell monolayers were wounded, control cells had completely filled in the scratched area."}, "[5]": {"tested_on": "fAR, AR-V7, Mnk-1, peIF4E and their downstream targets", "test": "Molecular analysis of CWR22Rv1 tumors", "format": "in vivo", "details": "CWR22Rv1 tumors from treated mice", "source_text": "To assess their in vivo mode of action, we evaluated the effects of Compound 20 on fAR, AR-V7, Mnk-1, peIF4E and their downstream targets."}, "[6]": {"tested_on": "PC-3 human prostate carcinoma cells", "test": "MTT cell proliferation assay, PC-3", "format": "cell-based", "details": "PC-3 cells, SEM < 10%, read-out: GI50s PC-3", "source_text": "as §1, §2, §3\n(§4) The PC-3 cell line was the least sensitive to all the compounds tested."}, "[7]": {"tested_on": "LNCaP human prostate carcinoma cells", "test": "MTT cell proliferation assay, LNCaP", "format": "cell-based", "details": "SEM < 10%, read-out: GI50s LNCaP", "source_text": "as §1, §2, §3, §4"}, "[8]": {"tested_on": "MCF-7 human breast cancer cells", "test": "MTT cell proliferation assay, MCF-7", "format": "cell-based", "details": "Homo sapiens, MCF7; MCF-7 cells, MTT, SEM < 10%; read-out: GI50s MCF-7", "source_text": "as §1, §2, §3"}, "[9]": {"details": "CWR22Rv1 xenografts, castrated SCID mice, i.p. 20 mg/kg/day, 5 days per week for 28 days"}}, "note": "pIC50: −log10 of the molar value."}
{"molecule": "CC1=C(/C=C/C(C)=C/C=C/C(C)=C\\C(=O)Nc2cccc(F)c2)C(C)(C)CCC1n1ccnc1", "note": "(stereo not shown) [Compound 20, (2Z,4E,6E,8E)-9-(3-(1H-imidazol-1-yl)-2,6,6-trimethylcyclohex-1-en-1-yl)-N-(3-fluorophenyl)-3,7-dimethylnona-2,4,6,8-tetraenamide]", "values": [{"measurement": "pIC50", "setting": "[1]", "result": 5.17}, {"measurement": "Mnk1/2, peIF4E, cyclin D1 and Bcl-2 in tumors", "setting": "[2]", "result": "depletion"}, {"measurement": "pro-apoptotic proteins Bad and Bax in tumors", "setting": "[2]", "result": "up-regulation"}, {"measurement": "adverse effects", "setting": "[3]; CWR22Rv1 xenograft mice", "result": "no apparent adverse effects"}, {"measurement": "body weights", "setting": "[3]; CWR22Rv1 xenograft mice, vehicle control versus treatment", "result": "comparable"}, {"measurement": "% T/C value", "setting": "[3]; [9]", "result": 38.8, "unit": "%"}, {"measurement": "suppression of tumor growth", "setting": "[3]; [9]", "result": 61.2, "unit": "%"}, {"measurement": "migration of MDA-MB-231 cells", "setting": "[4]", "result": "significantly inhibited migration"}, {"measurement": "fAR, AR-V7, Mnk1/2, peIF4E, cyclin D1 and Bcl-2 in tumors", "setting": "[5]", "result": "depletion"}, {"measurement": "pro-apoptotic protein Bad in tumors", "setting": "[5]", "result": "up-regulation"}, {"measurement": "pIC50", "setting": "[6]", "result": 5.25}, {"measurement": "pIC50", "setting": "[7]", "result": 5.57}, {"measurement": "pIC50", "setting": "[8]", "result": 5.24}]}
